From doi:10.1101/2025.10.20.683491v1 (biorxiv, 2025) come the findings set out here.

The data set addresses hERG channel (Homo sapiens, UniProt Q12809, species not given). The data set is described as follows: hERG channel inhibition assay. It counts as cell-based. For orientation: hERG is a cardiac potassium channel; its block is linked to QT prolongation.

Chain of hERG channel (Q12809 whole entry): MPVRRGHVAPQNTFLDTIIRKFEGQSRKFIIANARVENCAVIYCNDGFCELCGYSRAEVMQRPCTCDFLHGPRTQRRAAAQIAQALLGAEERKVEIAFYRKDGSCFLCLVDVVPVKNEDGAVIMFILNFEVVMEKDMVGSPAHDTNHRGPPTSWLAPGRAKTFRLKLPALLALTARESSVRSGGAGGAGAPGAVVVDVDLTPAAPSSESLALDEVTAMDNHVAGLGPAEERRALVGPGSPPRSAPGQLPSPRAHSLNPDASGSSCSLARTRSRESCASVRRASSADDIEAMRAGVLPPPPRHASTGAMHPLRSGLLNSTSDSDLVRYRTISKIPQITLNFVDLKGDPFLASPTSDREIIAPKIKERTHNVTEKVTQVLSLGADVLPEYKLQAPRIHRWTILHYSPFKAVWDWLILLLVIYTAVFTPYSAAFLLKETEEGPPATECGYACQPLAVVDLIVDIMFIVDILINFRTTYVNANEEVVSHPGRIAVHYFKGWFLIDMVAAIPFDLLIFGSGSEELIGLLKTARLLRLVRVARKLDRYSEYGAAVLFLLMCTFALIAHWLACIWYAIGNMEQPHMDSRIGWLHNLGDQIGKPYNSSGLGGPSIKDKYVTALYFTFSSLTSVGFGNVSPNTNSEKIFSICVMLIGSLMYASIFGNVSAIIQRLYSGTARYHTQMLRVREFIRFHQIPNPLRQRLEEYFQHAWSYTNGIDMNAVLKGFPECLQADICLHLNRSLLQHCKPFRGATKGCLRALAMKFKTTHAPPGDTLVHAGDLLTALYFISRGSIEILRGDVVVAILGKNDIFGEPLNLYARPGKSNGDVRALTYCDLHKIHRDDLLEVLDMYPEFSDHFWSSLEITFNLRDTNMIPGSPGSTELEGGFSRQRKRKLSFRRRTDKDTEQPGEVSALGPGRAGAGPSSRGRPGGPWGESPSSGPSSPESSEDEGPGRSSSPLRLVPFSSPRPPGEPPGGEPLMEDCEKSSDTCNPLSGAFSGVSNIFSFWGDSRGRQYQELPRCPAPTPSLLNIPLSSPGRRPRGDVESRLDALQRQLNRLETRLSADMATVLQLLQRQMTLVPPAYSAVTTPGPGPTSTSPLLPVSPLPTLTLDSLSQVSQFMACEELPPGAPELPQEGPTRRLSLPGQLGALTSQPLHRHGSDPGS

One may read the IC50 as the concentration that inhibits the measured activity by half. Low readings indicate higher potency, high ones lower potency. As to `CNC(=O)C[C@@H](NC(=O)C[C@H](Cc1c[nH]c2ccccc12)NC(=O)[C@@H]1CCCC[C@H]1NCc1cnc(-c2sc(C)nc2C)o1)c1ccccc1` [DEL-C1], the IC50 was over 100 µM.
